Reference: PMC3939009, “Thrombin inhibitory activity of some polyphenolic compounds” (Medicinal Chemistry Research, 2013)
pIC50, pKd: −log10 of the molar value. Like-named read-outs stand apart in the source and are kept apart here.

Key:
human thrombin [1] = experiment: Thrombin-induced platelet aggregation (turbidimetric); type: cell-based; settings: compound preincubated with thrombin
Method: Blood samples in 0.32 % sodium citrate from healthy volunteers without cardiovascular disorders were collected, untreated with antiplatelet drugs. […] Platelets were isolated from PRP using BSA–Sepharose 2B gel filtration method according to Walkowiak et al. ([2000]). […] In these preparations, to nine volumes of thrombin one volume of polyphenolic compounds was added (final thrombin concentration was 15.8 nM). All tested compounds were dissolved in 50 % DMSO to the initial concentration of 10 mM; other solutions of compounds were also prepared in 50 % DMSO (prepared in 50 mM TBS, pH 7.4). […] The platelet aggregation was measured by turbidimetric method (Saluk-Juszczak et al., [2007]) using dual-channel Chrono-log optical aggregometer (Chronolog, USA). […] Platelet suspensions were pre-warmed at 37 °C with stirring.

human thrombin [2] = molecular target: T1, human thrombin (Homo sapiens, UniProt P00734); experiment: Thrombin-induced fibrinogen polymerization; type: biochemical; set-up: Thrombin, also known as an active plasma coagulation factor II; purchased Sigma-Aldrich Chemical Co. (St. Louis, MO, USA) T7009; settings: thrombin preincubated with compound, 10 min 37 °C
Method: In these preparations, to nine volumes of thrombin one volume of polyphenolic compounds was added (final thrombin concentration was 15.8 nM). All tested compounds were dissolved in 50 % DMSO to the initial concentration of 10 mM; other solutions of compounds were also prepared in 50 % DMSO (prepared in 50 mM TBS, pH 7.4). […] Polymerization of fibrin was monitored at 595 nm using a 96-well microtiter plate reader. To each reaction well of the microtiter plate, 100 μl of fibrinogen (3 mg/ml) in 50 mM TBS and 5 mM CaCl2, pH 7.4, were added. […] The maximal velocity of the polymerization process (V max, Δm OD/min) for each absorbance curve was determined (Nowak et al., [2007]).

human thrombin [3] = molecular target: T1, human thrombin; experiment: BIAcore (SPR) analysis of binding to immobilized thrombin; set-up: Thrombin, also known as an active plasma coagulation factor II; purchased Sigma-Aldrich Chemical Co. (St. Louis, MO, USA) T7009; settings: for pKd: read-out: K D, equilibrium dissociation constant; for kon: read-out: k a, association rate; for koff: read-out: k d, dissociation rate; for Response (RU): analyte 1,000 μM, thrombin immobilized on CM5 chip
Method: The biosensor assays were performed using the BIAcore 1000 biosensor system. All biosensor analyses were performed with a phosphate-buffered saline (PBS), pH 7.4, as a running buffer. […] The immobilization of thrombin on a biosensor carboxylmethyl dextran surface was performed according to the BIA applications Handbook (BIAcore, [1994]). The process of protein immobilization was performed on a sensor chip CM5 surface by the positively charged functional groups of protein amino acids. The immobilization process consisted of four steps: preconcentration, activation, ligand immobilization and deactivation of the residual NHS esters. […] The temperature during the whole experiment was also constant and was set to 25.0 °C. […] Each of these solutions (10 μl) was injected into an empty sensor chip channel. […] The amount of injected activation mixture was modified, to regulate the amount of immobilized ligand. […] The conditions of the latter experiments were established by numerous pre-tests. The assessed parameters included: the buffer flow rate, the volume of analyte injection, the concentration of analytes, types and concentration of regenerators. […] For each injection of analyte solution, the volume used was 100 μl. After injection of analyte was completed, the dissociation step occurred and the level of the interaction ligand-analyte was measured. During dissociation, the particles non-covalently bound to the ligand were washed out from the working channel. […] To do these calculations, the formulas presented below were used: the association rate […]]; the dissociation rate -d[AB]/dt=kd·[AB]; the equilibrium constants: KA=[AB]/[A]·[B]=ka/kd KD=[A]·[B]/[AB]=kd/ka.

human thrombin [4] = molecular target: T1, human thrombin; experiment: Analysis of thrombin inhibition parameters (Lineweaver–Burk curves); type: biochemical; set-up: Thrombin, also known as an active plasma coagulation factor II; purchased Sigma-Aldrich Chemical Co. (St. Louis, MO, USA) T7009; settings: for k cat: compound at IC50 concentration, k cat = V max/E 0, control 29.1; for Type of inhibition: from Lineweaver–Burk curves; for V max of chromogenic substrate hydrolysis by thrombin / K m of chromogenic substrate hydrolysis by thrombin: thrombin incubated with compound at IC50 concentration; for V max of chromogenic substrate hydrolysis by thrombin: control 30.7; for K m of chromogenic substrate hydrolysis by thrombin: control 158.7
Method: Absorbance was monitored every 12 s for 10 min in a 96-well microplate reader. The velocity of reaction was expressed as the increase in product (pNA) over time (∆ μmol/min) using a computer program Mikcroplate Manager® 8 and the extinction coefficient of p-nitroaniline. […] Then, the Lineweaver–Burk ([1934]) curves for thrombin in the presence and in the absence of polyphenol compounds were plotted. The Lineweaver–Burk equation, which is a transformation of the Michaelis–Menten model, looks as follows: 1/V=Km/Vmax·1/[S]+1/Vmax

human thrombin [5] = molecular target: T1, human thrombin; experiment: Amidolytic activity of thrombin (hydrolysis of chromogenic substrate D-Phe-Pip-Arg-pNA); type: biochemical; set-up: Thrombin, also known as an active plasma coagulation factor II; purchased Sigma-Aldrich Chemical Co. (St. Louis, MO, USA) T7009; host or cells: purified from human plasma; settings: at 375 μM substrate concentration; compounds 0.1–1,000 μM, preincubation 10 min 37 °C; read-out: IC50, amidolytic activity of human thrombin
Method: (§1) All tested compounds were dissolved in 50 % DMSO to the initial concentration of 10 mM; other solutions of compounds were also prepared in 50 % DMSO (prepared in 50 mM TBS, pH 7.4). The final concentration of DMSO in thrombin samples was 5 %. To prepare thrombin control samples, the same volume of solvent (50 % DMSO prepared in 50 mM TBS, pH 7.4) was added as in the case of the compound volume and warmed for 10 min to 37 °C.
To each reaction well, 40 μl of 3 mM chromogenic substrate was added. To initiate the chromogenic reaction, 280 μl of control thrombin (without tested compounds) or thrombin after preincubation with a polyphenolic compound to every reaction well in the same moment was added. The absorbance value was monitored every 12 s for 10 min. The maximal velocity of the reaction (V max, Δm OD/min) for each absorbance curve was determined. IC50 value (parameter) for every polyphenolic compound from inhibition curves was estimated.

human thrombin [6] = molecular target: T1, human thrombin; experiment: SDS-PAGE analysis of thrombin-induced cross-linked fibrin formation; type: biochemical; set-up: Thrombin, also known as an active plasma coagulation factor II; purchased Sigma-Aldrich Chemical Co. (St. Louis, MO, USA) T7009; host or cells: purified from human plasma; settings: cyanin 75 and 750 μM, (+)-catechin 125 and 1,000 μM, (−)-epicatechin 150 and 1,000 μM
Method: as §1, with “In these preparations, to nine volumes of thrombin one volume of polyphenolic compounds was added (final thrombin concentration was 15.8 nM). All” for “All”
The reactions incubated at 37 °C were stopped after 5, 15 and 30 min by adding 150 μl of lysis buffer (0.125 M Tris/HCl, 4 % SDS, 8 M urea, 10 % β-mercaptoethanol, pH 6.8). Samples were subjected to SDS-PAGE (polyacrylamide concentration—7.5 %) using Mini-Protean Electrophoresis Cell (Bio-Rad, Hercules, CA). Proteins were stained with Coomassie Brilliant Blue R250 (CBB).

Structure (SMILES)	Effect on thrombin ability to stimulate platelet aggregation (human thrombin [1])	Effect on thrombin ability to induce fibrinogen polymerization (human thrombin [2])	K A, equilibrium association constant (human thrombin [3]; 5 sensorgrams, 50 to 1,000 μM)	pKd (human thrombin [3]; 5 sensorgrams, 50 to 1,000 μM)	kon (human thrombin [3]; 5 sensorgrams, 50 to 1,000 μM)	koff (human thrombin [3]; 5 sensorgrams, 50 to 1,000 μM)	Response (RU) (human thrombin [3])	k cat (human thrombin [4])	Type of inhibition (human thrombin [4])	V max of chromogenic substrate hydrolysis by thrombin (human thrombin [4])	K m of chromogenic substrate hydrolysis by thrombin (human thrombin [4])	pIC50 (human thrombin [5])	Changes in electrophoresis of fibrinogen treated with preincubated thrombin (human thrombin [6])	K A, equilibrium association constant (human thrombin [3])
Oc1cc(O)c2c(c1)O[C@H](c1ccc(O)c(O)c1)[C@@H](O)C2 [(+)-Catechin, (+)-catechin]	no effect on thrombin ability to stimulate platelets aggregation	inhibitory effect of polymerization of human fibrinogen was not observed	20300 M⁻¹	4.31	3.62 M⁻¹ s⁻¹	0.000178 s⁻¹	717 RU	29.5 s⁻¹	competitive inhibitors	31.2 10^−6 mol/min	700.1 10^−6 M	3.90	no changes were observed	
Oc1cc(O)c2c(c1)O[C@H](c1ccc(O)c(O)c1)[C@H](O)C2 [(−)-Epicatechin, (−)-epicatechin]	no effect on thrombin ability to stimulate platelets aggregation	inhibitory effect of polymerization of human fibrinogen was not observed	192 M⁻¹	2.28	4.37 M⁻¹ s⁻¹	0.0227 s⁻¹	431 RU	27.8 s⁻¹	competitive inhibitors	29.4 10^−6 mol/min	481.5 10^−6 M	3.82	no changes were observed	192 M^–1
OC[C@H]1O[C@@H](Oc2cc3c(O[C@@H]4O[C@H](CO)[C@@H](O)[C@H](O)[C@H]4O)cc(O)cc3[o+]c2-c2ccc(O)c(O)c2)[C@H](O)[C@@H](O)[C@@H]1O [Cyanin, cyanin]	no effect on thrombin ability to stimulate platelets aggregation	inhibitory effect of polymerization of human fibrinogen was not observed	115 M⁻¹	2.06	0.95 M⁻¹ s⁻¹	0.00824 s⁻¹	827 RU	19.7 s⁻¹	mixed type of inhibition	20.8 10^−6 mol/min	344.6 10^−6 M	4.12	no changes were observed	115 M^–1
